According to patent publication US20130202619A1, “METHODS AND MATERIALS FOR REDUCING LIVER FIBROSIS” (MAYO FOUNDATION FOR MEDICAL EDUCATION AND RESEARCH, priority 2010, published 2013):
Several values for one entry are separate records, joined by “and”; a condition that tells them apart may be missing. Identical values can stand only once. Entries after “also recorded” stand apart in the source; their conditions may differ.

Experiments:
Format in all cases: cell-based, human
HuH7 cells [1] = test: Response of HuH7 cells to TGFβ1 (gene expression by real-time PCR, cell fate)
Protocol: (§1) The hepatocyte cell line HuH7, the cholangiocyte cell line H69, and the hepatic stellate cell line LX2 were grown to confluence in DMEM with 10% fetal bovine serum and antibiotics Penicillin (100 U/mL) and Streptomycin (10 μg/mL) at 37° C. and 5% CO2 Cells were harvested, washed in cold phosphate buffered saline and snap frozen. […] At 24, 48 and 72 hours, cells were trypsin digested, washed three times with ice cold phosphate buffered saline and quick frozen at −80° C. in two separate lots for either protein or RNA extraction. In separate experiments, palmitic or stearic acid was added to the culture media of HuH7 cells at a concentration of 400 μM (Cazanave et al., J. Biol. Chem., 284:26591-26602 (2009)). All experiments were carried out in triplicate and results are reported as the average of triplicates.
(§2) Total RNA was isolated from cells collected from the cell culture experiments (described herein) or from liver tissue samples collected from patient or from mouse experiments (described herein) using the RNeasy Plus kit as per the manufacturer's instructions (Qiagen, GmbH, Germany). 500 ng of total RNA was reverse transcribed into cDNA using random hexamers (Transcriptor High Fidelity cDNA synthesis kit, Roche, USA). Real time PCR was carried on a LightCycler (Roche, CA, USA) using equal quantities of template cDNA in a total volume of 20 μL using Lightcycler FastStart DNA Master SYBR green1 (Roche, Indianapolis, USA). Expression of 18S rRNA was used as the internal standard (Quantum RNA 18S Internal Standards, Ambion Inc, Austin, Tex., USA). Standard curves were generated for each optimized assay using known PCR copy numbers to produce a linear plot of threshold cycle (Ct) against log dilution. Data for lumican is presented as lumican copy number normalized against the 18S absolute copy number where indicated. For all other gene expression assays, results are presented as fold change as represented by the expression 2^−ΔΔCt (Schmittgen & Livak, Nat. Protoc., 3:1101-1108 (2008)).
(§3) HuH7 or LX2 cells were plated at uniform density in single well chamber slides adopting the same protocol as for cell culture described above. At time points of 0, 24, 48, and 72 hours post seeding, medium was aspirated, slides were washed with phosphate buffered saline, air dried and stored at −80° C. until staining. Briefly, cells were fixed in acetone, followed by 1% paraformaldehyde. Cells were immunostained with anti human lumican at dilution of 1:50 (Santa Cruz, USA) and detected with appropriate FITC labeled secondary antibodies (MP Biomedicals, OH, USA). Negative controls consisted of identical treatments with omission of primary antibody. DAPI was used for nuclear staining (Sigma, MO, USA). Images were captured on an Olympus microscope with appropriate filter settings for FITC (green) and DAPI (blue).
(§4) Gene expression data presented as copy number are expressed as mean±standard error. Fold changes represent values normalized to 18S and to time point of 0 hours. To assess significance of difference between treatments, the paired 2-tailed student's test with equal variance was used. A p value of <0.05 was considered statistically significant.

LX2 cells = test: Response of LX2 cells to TGFβ1 (gene expression by real-time PCR, cell fate)
Protocol: as §1, §2, §3, §4

HuH7 cells [2] = test: Lumican gene expression in HuH7 cells exposed to free fatty acids (real-time PCR); conditions: 400 μM fatty acid, 6 hours
Protocol: as §1, §2
Gene expression data presented as copy number are expressed as mean±standard error. […]

[3] = HuH7 cells, TGFβ1 2 ng/mL, 48 hours

Row | Compound | increase in collagen 1α1 gene expression (HuH7 cells [1]; HuH7 cells, TGFβ1 2 ng/mL, 24 hours) [fold] | increase in collagen 1α1 gene expression (HuH7 cells [1]; [3]) [fold] | increase in lumican gene expression (HuH7 cells [1]; [3]) | increase in lumican gene expression over baseline (HuH7 cells [1]; HuH7 cells, TGFβ1 2 ng/mL, 72 hours) | cell fate (apoptosis / proliferation) (HuH7 cells [1]; HuH7 cells, TGFβ1 2 ng/mL, over 72 hours) | decrease in albumin production (HuH7 cells [1]; HuH7 cells, TGFβ1, 24 hours) [fold] | increase in alpha smooth muscle actin expression (HuH7 cells [1]; HuH7 cells, TGFβ1, 48 hours) | decrease in albumin production (HuH7 cells [1]; HuH7 cells, TGFβ1, 48 hours (48-72 hours)) | beta 1 integrin expression (HuH7 cells [1]; HuH7 hepatocytes, TGFβ1 2 ng/mL, up to 72 hours) | increase in lumican gene expression over baseline (LX2 cells; LX2 cells, TGFβ1 2 ng/mL, 72 hours) [fold] | cell fate (apoptosis / proliferation) (LX2 cells; LX2 cells, TGFβ1 2 ng/mL, over 72 hours) | increase in alpha smooth muscle actin expression (LX2 cells; LX2 cells, TGFβ1, 48 hours) [fold] | increase in collagen 1α1 gene expression (LX2 cells; LX2 stellate cells, TGFβ1 2 ng/mL, 24 hours) [fold] | increase in collagen 1α1 gene expression (LX2 cells; LX2 stellate cells, TGFβ1 2 ng/mL, 48 hours) [fold] | beta 1 integrin expression (LX2 cells; LX2 stellate cells, TGFβ1 2 ng/mL, up to 72 hours) | increase in lumican expression (HuH7 cells [2]) | increase in lumican expression (HuH7 cells [2]; listed as palmitic)
1 | TGFβ1: pro-fibrotic cytokine transforming growth factor β1 (R&D systems), used at 2 ng/mL | 9 | > 100 | four fold | 15 fold and 14 fold | underwent apoptosis | 10 | fourfold; also recorded: four fold | five fold; also recorded: four fold | no change | 27 | continued to proliferate | 4.5 | 4 | 5 | gradual increase |  | 
2 | CCCCCCCCCCCCCCCCCC(=O)O [stearic acid] |  |  |  |  |  |  |  |  |  |  |  |  |  |  |  | 1.9 fold and 2 fold | 
3 | CCCCCCCCCCCCCCCC(=O)O [palmitic acid] |  |  |  |  |  |  |  |  |  |  |  |  |  |  |  | 3.1 fold | three fold
